Results reported in the supplement of paper PMC6045584.
± gives the standard deviation of the averaged measurements.

What was measured:
OLAPARIB = compound: O=C(c1cc(Cc2n[nH]c(=O)c3ccccc23)ccc1F)N1CCN(C(=O)C2CC2)CC1 [OLAPARIB]; test: surviving fraction relative to DMSO-only wells; higher = less growth inhibition; conditions: exposure time: 5 days
In short: (§1)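 In 384-well plates, 250–500 log-phase tumour cells per well were given 24 hours before five days of continuous exposure to inhibitors at 0.5, 1, 5, 10, 50, 100, 500 and 1000 nM. Surviving fraction is luminescence from CellTiter-Glo, normalised to the median of wells containing DMSO alone. Reading took place after 10 minutes at room temperature.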

[1] = compound: C[C@@H](Oc1cc(-c2cnn(C3CCNCC3)c2)cnc1N)c1c(Cl)ccc(F)c1Cl; test: as above; conditions: exposure time: 5 days
In short: as §1

Test System	surviving fraction (OLAPARIB; 0.5 nM)	surviving fraction (OLAPARIB; 1 nM)	surviving fraction (OLAPARIB; 5 nM)	surviving fraction (OLAPARIB; 10 nM)	surviving fraction (OLAPARIB; 50 nM)	surviving fraction (OLAPARIB; 100 nM)	surviving fraction (OLAPARIB; 500 nM)	surviving fraction (OLAPARIB; 1000 nM)	surviving fraction ([1]; 0.5 nM)	surviving fraction ([1]; 5 nM)	surviving fraction ([1]; 10 nM)	surviving fraction ([1]; 50 nM)	surviving fraction ([1]; 100 nM)	surviving fraction ([1]; 500 nM)	surviving fraction ([1]; 1000 nM)	surviving fraction ([1]; 1 nM)
MDAMB453 BREAST	0.989 ± 0.063	1 ± 0.036	0.989 ± 0.07	0.964 ± 0.059	0.966 ± 0.042	0.936 ± 0.018	1.03 ± 0.025	0.916 ± 0.025	0.994 ± 0.054	1.02 ± 0.074	1.03 ± 0.026	1.06 ± 0.014	1.06 ± 0.05	0.771 ± 0.029	0.637 ± 0.013	
MDAMB436 BREAST	0.888 ± 0.1	0.878 ± 0.08	0.806 ± 0.056	0.795 ± 0.039	0.651 ± 0.011	0.606 ± 0.022	0.537 ± 0.022	0.469 ± 0.031	0.833 ± 0.046	0.844 ± 0.057	0.822 ± 0.046	0.996 ± 0.014	0.962 ± 0.067	0.872 ± 0.036	0.736 ± 0.027	0.828 ± 0.06
SIHA CERVIX	0.988 ± 0.022	1.07 ± 0.13	1.02 ± 0.073	1.03 ± 0.044	0.967 ± 0.053	1.04 ± 0.061	0.91 ± 0.067	0.886 ± 0.061	0.92 ± 0.038		0.931 ± 0.034	0.99 ± 0.011	1.07 ± 0.068	0.676 ± 0.042	0.628 ± 0.075	0.931 ± 0.01
OS25HAL BONE	1.01 ± 0.015	1.01 ± 0.033	1.04 ± 0.015	1.02 ± 0.025	1.05 ± 0.019	1.01 ± 0.017	1.005 ± 0.0085	0.99 ± 0.012	0.913 ± 0.013	0.92 ± 0.015	0.9 ± 0.014	0.969 ± 0.017	0.937 ± 0.016	0.813 ± 0.1	0.285 ± 0.043	
BT20 BREAST	0.996 ± 0.12	1.14 ± 0.055	0.942 ± 0.14	1.04 ± 0.096	0.757 ± 0.1	0.732 ± 0.13	0.795 ± 0.21	0.773 ± 0.085	0.82 ± 0.047	0.808 ± 0.092	0.821 ± 0.071	1 ± 0.074	1 ± 0.052	0.786 ± 0.04	0.468 ± 0.078	0.792 ± 0.032
HCT15 LARGE INTESTINE	1.09 ± 0.06	1.06 ± 0.022	1.01 ± 0.085	1.05 ± 0.065	0.998 ± 0.043	1.04 ± 0.018	0.999 ± 0.055	1.03 ± 0.034	0.88 ± 0.058	0.895 ± 0.03		0.959 ± 0.024		0.889 ± 0.042	0.165 ± 0.0046	0.88 ± 0.054
A549 LUNG	1.06 ± 0.036	1.07 ± 0.042	1.06 ± 0.031	1.05 ± 0.035	1.06 ± 0.025	1.04 ± 0.045	1.09 ± 0.021	1.02 ± 0.057			0.909 ± 0.0099	1.01 ± 0.014	1.04 ± 0.064	1.009 ± 0.0093	0.552 ± 0.031	0.942 ± 0.01
YAMATO SYNOVIAL	1.38 ± 0.12	1.4 ± 0.08	1.49 ± 0.062	1.37 ± 0.11	0.894 ± 0.084	0.871 ± 0.092	0.819 ± 0.02	0.738 ± 0.044	0.796 ± 0.0095	0.79 ± 0.015	0.724 ± 0.12	0.425 ± 0.015	0.309 ± 0.014	0.279 ± 0.014	0.333 ± 0.024	0.763 ± 0.069
SCC003 HEADNECK	1.14 ± 0.066	1.03 ± 0.079	1.01 ± 0.072	1.09 ± 0.11	1.13 ± 0.052	1 ± 0.046	0.974 ± 0.12	0.881 ± 0.083	0.763 ± 0.099	0.835 ± 0.042	0.818 ± 0.03	1.04 ± 0.047	0.982 ± 0.047	0.672 ± 0.081	0.417 ± 0.025	
VCAP PROSTATE	1.17 ± 0.067	1.1 ± 0.074	1.17 ± 0.089	1.04 ± 0.13	1.08 ± 0.09	1.09 ± 0.12	1.03 ± 0.089	0.922 ± 0.074		1.02 ± 0.091	1.01 ± 0.031	1.08 ± 0.055	0.897 ± 0.061	0.429 ± 0.027	0.143 ± 0.0055	0.919 ± 0.097
HELA CERVIX	1.05 ± 0.064	1.09 ± 0.025	1.05 ± 0.031	1.04 ± 0.036	1.13 ± 0.03	1.18 ± 0.092	1.17 ± 0.014	1.19 ± 0.019	0.969 ± 0.02	0.948 ± 0.018	0.895 ± 0.072	1.02 ± 0.027	1.06 ± 0.055	0.811 ± 0.05	0.258 ± 0.015	
C33A CERVIX	1.04 ± 0.098	1.04 ± 0.02	1.07 ± 0.049	1.03 ± 0.017	1.05 ± 0.098	0.998 ± 0.14	0.895 ± 0.068	0.841 ± 0.11	1.01 ± 0.068	1.08 ± 0.13	1.14 ± 0.059	1.06 ± 0.044		0.565 ± 0.028	0.515 ± 0.011	
HU09 BONE	1.01 ± 0.094	0.974 ± 0.031	1.04 ± 0.13	1.13 ± 0.083	0.896 ± 0.063	1.09 ± 0.08	0.851 ± 0.061	0.779 ± 0.096			0.95 ± 0.07		0.841 ± 0.014	0.388 ± 0.053	0.197 ± 0.018	0.889 ± 0.033
SCC47 HEADNECK	1.1 ± 0.09	0.994 ± 0.062	1.14 ± 0.042	1.07 ± 0.086	1.08 ± 0.098	0.989 ± 0.079	0.977 ± 0.043	1.03 ± 0.11	0.909 ± 0.012	0.988 ± 0.018	0.924 ± 0.037	1.06 ± 0.031	0.96 ± 0.066	0.721 ± 0.017	0.472 ± 0.024	0.9017 ± 0.0072
SUM149.B1*.S BREAST	1.092 ± 0.0038	1.09 ± 0.094	1.08 ± 0.031	1.05 ± 0.022	1.03 ± 0.015	0.962 ± 0.035	1.04 ± 0.011	0.911 ± 0.04	0.902 ± 0.028	0.921 ± 0.037	0.904 ± 0.04	0.96 ± 0.032	0.929 ± 0.037	0.855 ± 0.056	0.729 ± 0.051	0.898 ± 0.036
MG63 BONE	1.03 ± 0.034	1.061 ± 0.0049	1.06 ± 0.031	1.06 ± 0.033	1.023 ± 0.001	1.024 ± 0.01	0.939 ± 0.027	0.879 ± 0.019	0.898 ± 0.011			0.91 ± 0.029	0.827 ± 0.023	0.711 ± 0.02	0.607 ± 0.004	0.912 ± 0.016
SAOS2 BONE	1.078 ± 0.0052	1.02 ± 0.022	1.16 ± 0.072	1.07 ± 0.042	0.882 ± 0.021	0.8217 ± 0.0046	0.753 ± 0.013	0.692 ± 0.027	0.7737 ± 0.0011		0.874 ± 0.036	1.06 ± 0.08	0.971 ± 0.046	0.319 ± 0.012	0.164 ± 0.012	0.866 ± 0.018
SYO1 SYNOVIAL	0.992 ± 0.055	0.95 ± 0.053	0.924 ± 0.045	0.881 ± 0.06	0.724 ± 0.025	0.6731 ± 0.0055	0.564 ± 0.044	0.429 ± 0.027	0.814 ± 0.068	0.822 ± 0.031	0.781 ± 0.027	0.904 ± 0.01	0.829 ± 0.036	0.26 ± 0.063	0.123 ± 0.0083	0.821 ± 0.064
OSHN BONE	1.06 ± 0.021	1.05 ± 0.023	1.07 ± 0.032	1.04 ± 0.023	1.003 ± 0.01	0.984 ± 0.011	0.984 ± 0.017	0.917 ± 0.013	0.908 ± 0.013	0.91 ± 0.0079	0.9 ± 0.01	0.992 ± 0.023	0.971 ± 0.018	0.868 ± 0.013	0.189 ± 0.029	0.9047 ± 0.0064
SG31 HEADNECK	1.17 ± 0.27	1.09 ± 0.061	1.02 ± 0.12	0.985 ± 0.16	0.932 ± 0.18	0.908 ± 0.13	0.946 ± 0.073	0.962 ± 0.073		0.821 ± 0.059	0.843 ± 0.18	0.847 ± 0.063	0.845 ± 0.088	0.755 ± 0.061	0.485 ± 0.07	0.821 ± 0.04
HCC78 LUNG	0.948 ± 0.06	0.986 ± 0.2	1.03 ± 0.32	1.22 ± 0.46	1.12 ± 0.1	1.05 ± 0.12	0.987 ± 0.19	0.859 ± 0.068	0.898 ± 0.19	1.05 ± 0.099	0.838 ± 0.16	0.421 ± 0.08	0.455 ± 0.15	0.166 ± 0.012	0.069 ± 0.021	0.978 ± 0.1
HOS BONE	1.03 ± 0.022	1.03 ± 0.026	1.06 ± 0.0091	1.012 ± 0.0081	1.02 ± 0.028	1.01 ± 0.023	1.01 ± 0.026	0.953 ± 0.041	0.934 ± 0.018	0.966 ± 0.03		1.008 ± 0.0042	0.997 ± 0.038	0.571 ± 0.029	0.499 ± 0.023	0.938 ± 0.019
